Assay results from PubChem BioAssay AID330 (DTP/NCI, 2004).
“And” between values parts separate entries of the source, which are not always exact repeats. Identical values can stand only once. Toxic doses and inconclusive results are not listed. Rule for the calls: active = survival T/C of 150% or more; inactive = T/C below 125% in these data.

System: P388 leukemia ip, CD2F1 mice, survival T/C
Assay: NCI In Vivo Anticancer Drug Screen. Data for tumor model P388 Leukemia (intraperitoneal) in CD2F1 (CDF1) mice
Settings: endpoint: median survival time, higher = longer survival
Method in brief: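 Mice carrying the transplanted tumor received test compound or vehicle. Survival was recorded in each group, and the value is the treated-group measurement divided by that of the vehicle-treated control group.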

[1] = dose: 50.0 mg/kg/injection, schedule: Q01DX009 (ip), vehicle: saline with Tween-80
[2] = dose: 50.0 mg/kg/injection, schedule: Q01DX009 (ip), vehicle: saline
[3] = dose: 50.0 mg/kg/injection, schedule: Q01DX005 (ip), vehicle: Klucel (hydroxypropylcellulose) (HPC)
[4] = dose: 100.0 mg/kg/injection, schedule: Q01DX005 (ip), vehicle: Klucel (hydroxypropylcellulose) (HPC)
[5] = dose: 200.0 mg/kg/injection, schedule: Q01DX005 (ip), vehicle: Klucel (hydroxypropylcellulose) (HPC)
[6] = dose: 50.0 mg/kg/injection, schedule: Q01DX009 (ip), vehicle: Klucel (hydroxypropylcellulose) (HPC)
[7] = dose: 100.0 mg/kg/injection, schedule: Q01DX009 (ip), vehicle: Klucel (hydroxypropylcellulose) (HPC)
[8] = dose: 60.0 mg/kg/injection, schedule: Q01DX005 (ip), vehicle: Klucel (hydroxypropylcellulose) (HPC)
[9] = dose: 120.0 mg/kg/injection, schedule: Q01DX005 (ip), vehicle: Klucel (hydroxypropylcellulose) (HPC)
[10] = dose: 25.0 mg/kg/injection, schedule: Q04DX002 (ip), vehicle: saline with Tween-80
[11] = dose: 50.0 mg/kg/injection, schedule: Q04DX002 (ip), vehicle: saline with Tween-80
[12] = dose: 100.0 mg/kg/injection, schedule: Q04DX002 (ip), vehicle: saline with Tween-80
[13] = dose: 50.0 mg/kg/injection, schedule: Q04DX003 (ip), vehicle: saline with Tween-80
[14] = dose: 100.0 mg/kg/injection, schedule: Q01DX009 (ip), vehicle: saline with Tween-80
[15] = dose: 100.0 mg/kg/injection, schedule: Q04DX003 (ip), vehicle: saline with Tween-80
[16] = dose: 200.0 mg/kg/injection, schedule: Q01DX009 (ip), vehicle: saline with Tween-80
[17] = dose: 200.0 mg/kg/injection, schedule: Q04DX003 (ip), vehicle: saline with Tween-80
[18] = dose: 50.0 mg/kg/injection, schedule: Q01DX005 (ip), vehicle: saline with Tween-80
[19] = dose: 100.0 mg/kg/injection, schedule: Q01DX005 (ip), vehicle: saline with Tween-80
[20] = dose: 60.0 mg/kg/injection, schedule: Q01DX005 (ip), vehicle: saline with Tween-80
[21] = dose: 120.0 mg/kg/injection, schedule: Q01DX005 (ip), vehicle: saline with Tween-80

Measured: T/C

C=C1C(=O)C23C(OC(=O)c4ccc(Br)cc4)C1CCC2C12COC3(O)C(O)C1C(C)(C)CCC2O (configuration not stated)
inactive: dose: 3.75 mg/kg/injection, schedule: Q01DX009 (ip), vehicle: saline with Tween-80 105 % of control and 106 % of control | dose: 7.5 mg/kg/injection, schedule: Q01DX009 (ip), vehicle: saline with Tween-80 105 % of control and 111 % of control | dose: 15.0 mg/kg/injection, schedule: Q01DX009 (ip), vehicle: saline with Tween-80 111 % of control and 120 % of control | dose: 30.0 mg/kg/injection, schedule: Q01DX009 (ip), vehicle: saline with Tween-80 119 % of control

Cc1c(-c2ccccc2)ccnc1/C=N/NC(=S)Nc1ccccc1
inactive: dose: 1.56 mg/kg/injection, schedule: Q01DX009 (ip), vehicle: saline 89 % of control | dose: 3.12 mg/kg/injection, schedule: Q01DX009 (ip), vehicle: saline 92 % of control | dose: 6.25 mg/kg/injection, schedule: Q01DX009 (ip), vehicle: saline 88 % of control and 95 % of control | dose: 25.0 mg/kg/injection, schedule: Q01DX009 (ip), vehicle: saline with Tween-80 89 % of control | [1] 89 % of control | [2] 86 % of control

O=Nc1c2n[nH]c1CCCCCCCCC2
inactive: [3] 101 % of control | [4] 101 % of control | [5] 98 % of control

COc1cc(-c2n[nH]c(=O)o2)cc(OC)c1OC
inactive: [6] 105 % of control | [7] 100 % of control | dose: 200.0 mg/kg/injection, schedule: Q01DX009 (ip), vehicle: Klucel (hydroxypropylcellulose) (HPC) 105 % of control

O=C(NC(CO)C(=O)OCc1ccccc1)OCCc1ccccn1 (configuration not stated)
inactive: [8] 100 % of control | [9] 96 % of control | dose: 240.0 mg/kg/injection, schedule: Q01DX005 (ip), vehicle: Klucel (hydroxypropylcellulose) (HPC) 96 % of control

O=[N+]([O-])c1ccc(Cl)cc1C(Nc1nncs1)Nc1nncs1
inactive: [8] 107 % of control | [9] 106 % of control

N#Cc1c(N2CCOCC2)cc(-c2ccccc2)oc1=O
inactive: [10] 101 % of control | [11] 97 % of control | [12] 100 % of control

Nc1ccc(S(=O)(=O)c2ccc(NCC(=O)O)cc2)cc1
inactive: [1] 100 % of control | [13] 100 % of control | [14] 95 % of control | [15] 100 % of control | [16] 86 % of control | [17] 100 % of control

CN(C)C1c2cc(Cl)ccc2-c2c(N)cc(Cl)cc21 (configuration not stated)
inactive: [3] 103 % of control | [4] 99 % of control | [5] 91 % of control

O=C1C=CC(=O)C(C2OC(=O)C(Cl)=C2Cl)=C1 (configuration not stated)
inactive: [18] 110 % of control | [19] 104 % of control

COC(=O)c1cccc2cccc(C(=O)N(C)CCN(C)C)c12
inactive: [20] 97 % of control | [21] 95 % of control

CCCCCCc1cc(-c2cc(CCCCCC)nc(N)n2)nc(N)n1
inactive: dose: 60.0 mg/kg/injection, schedule: Q01DX005 (ip), vehicle: saline 100 % of control | dose: 120.0 mg/kg/injection, schedule: Q01DX005 (ip), vehicle: saline 115 % of control

CC(C)(C)N=C(CCN1CCCCC1)Nc1ccc([N+](=O)[O-])cc1
inactive: [1] 112 % of control | [14] 110 % of control | [16] 103 % of control

COC(=O)[CH2][Ge]([c]1ccccc1)[c]1ccccc1.COC(=O)[CH2][Ge]([c]1ccccc1)[c]1ccccc1
inactive: dose: 15.0 mg/kg/injection, schedule: Q01DX005 (ip), vehicle: Klucel (hydroxypropylcellulose) (HPC) 97 % of control | dose: 30.0 mg/kg/injection, schedule: Q01DX005 (ip), vehicle: Klucel (hydroxypropylcellulose) (HPC) 89 % of control | [8] 89 % of control

NC(=N\N=C\C(O)C(O)C(O)C(O)C(=O)O)/C(N)=N/N=C/C(O)C(O)C(O)C(O)C(=O)O (configuration not stated)
inactive: dose: 50.0 mg/kg/injection, schedule: Q01DX005 (ip), vehicle: saline 101 % of control | dose: 100.0 mg/kg/injection, schedule: Q01DX005 (ip), vehicle: saline 104 % of control | dose: 200.0 mg/kg/injection, schedule: Q01DX005 (ip), vehicle: saline 101 % of control

O=C(O)C[N-]CC[N-]CC(=O)O.[Cl][Pt+2][Cl]
inactive: dose: 6.25 mg/kg/injection, schedule: Q04DX002 (ip), vehicle: saline with Tween-80 108 % of control | dose: 12.5 mg/kg/injection, schedule: Q04DX002 (ip), vehicle: saline with Tween-80 103 % of control | [10] 113 % of control | [11] 109 % of control | [12] 120 % of control | dose: 200.0 mg/kg/injection, schedule: Q04DX002 (ip), vehicle: saline with Tween-80 102 % of control

CCOC(CN=Cc1cc(C)c2[nH]c3ccccc3c2c1C)OCC
inactive: [18] 97 % of control | [19] 102 % of control | dose: 200.0 mg/kg/injection, schedule: Q01DX005 (ip), vehicle: saline with Tween-80 102 % of control

S=C(S)n1nc(-c2ccccc2)c(N=Nc2ccc(Br)cc2)c1-c1ccccc1
inactive: dose: 100.0 mg/kg/injection, schedule: Q04DX002 (ip), vehicle: Klucel (hydroxypropylcellulose) (HPC) 107 % of control | dose: 200.0 mg/kg/injection, schedule: Q04DX002 (ip), vehicle: Klucel (hydroxypropylcellulose) (HPC) 110 % of control | dose: 400.0 mg/kg/injection, schedule: Q04DX002 (ip), vehicle: Klucel (hydroxypropylcellulose) (HPC) 113 % of control

CCOC(O)C(F)(F)F (configuration not stated)
inactive: dose: 12.5 mg/kg/injection, schedule: Q01DX009 (ip), vehicle: saline 105 % of control | dose: 25.0 mg/kg/injection, schedule: Q01DX009 (ip), vehicle: saline 105 % of control | [2] 100 % of control | dose: 100.0 mg/kg/injection, schedule: Q04DX003 (ip), vehicle: saline 100 % of control | dose: 200.0 mg/kg/injection, schedule: Q04DX003 (ip), vehicle: saline 109 % of control

Nc1ccccc1C(=O)/C=C/c1ccccc1
inactive: [20] 100 % of control | [21] 100 % of control | dose: 240.0 mg/kg/injection, schedule: Q01DX005 (ip), vehicle: saline with Tween-80 100 % of control

O=C1c2ccccc2C(=O)c2cc3c(cc21)OCO3
inactive: [8] 88 % of control | [9] 89 % of control

CCCCCCCCCCCC[n+]1cc2ccccc2cc1C
inactive: dose: 6.25 mg/kg/injection, schedule: Q01DX005 (ip), vehicle: saline with Tween-80 115 % of control and 122 % of control

CCOC(=O)/C=C(\NC1CC(OC2C[C@](O)(C(C)=O)Cc3c(O)c4c(c(O)c32)C(=O)c2c(OC)cccc2C4=O)OC(C)C1O)C(=O)OCC (some centres not stated)
inactive: dose: 6.25 mg/kg/injection, schedule: Q04DX003 (ip), vehicle: saline with Tween-80 106 % of control | dose: 12.5 mg/kg/injection, schedule: Q04DX003 (ip), vehicle: saline with Tween-80 113 % of control | dose: 25.0 mg/kg/injection, schedule: Q04DX003 (ip), vehicle: saline with Tween-80 105 % of control | [13] 124 % of control

CCCOC(=O)CP(=O)(O)O
inactive: [1] 101 % of control | [14] 95 % of control | [16] 87 % of control

CCCN1COC(OCCN(CC)CC)C(C)(C)C1 (configuration not stated)
inactive: [1] 108 % of control | [14] 113 % of control | [16] 107 % of control

COc1ccc2c(c1)CC(CN1CCC3(CC1)C(=O)NCN3c1ccccc1)O2 (configuration not stated)
inactive: [1] 104 % of control | [14] 101 % of control | [16] 100 % of control

C(CCc1nnc2c(n1)CCCC2)Cc1nnc2c(n1)CCCC2
inactive: [20] 99 % of control | [21] 88 % of control

CCn1c(=O)c2[nH]c(Cl)nc2n(C2CC2)c1=O
inactive: [6] 99 % of control | [7] 101 % of control

N#CC(c1ccccc1)c1cnccn1 (configuration not stated)
inactive: dose: 25.0 mg/kg/injection, schedule: Q01DX005 (ip), vehicle: saline with Tween-80 102 % of control | [18] 100 % of control

Cc1cc(N2CCN(c3cc(C)c4ccccc4n3)CC2)nc2ccccc12
inactive: [1] 100 % of control | [14] 95 % of control | [16] 100 % of control

CC(=O)Nc1nc2c(=O)[nH]c(N)nc2n1C1OC(COC(C)=O)C(OC(C)=O)C1OC(C)=O (configuration not stated)
inactive: [13] 96 % of control | [15] 100 % of control | [17] 105 % of control | dose: 400.0 mg/kg/injection, schedule: Q04DX003 (ip), vehicle: saline with Tween-80 102 % of control
